# Measurements: US20110143948A1, “MOLECULAR SIGNATURES AND BIOMARKERS ASSOCIATED WITH MELANOMA AND METHODS OF USE THEREOF” (priority 2008, published 2011)
# Experiments:
# Format in all cases: cell-based, human
# [1] = tested on: FGF2; assay: beta gal target cleavage assay, FGF2; details: pcDNA6/LacZ/FGF2; data not shown
# Method: (§1) Target cleavage assays using the miRNA targets from the bioinformatics analyses above were conducted. The 3′ UTR seed sequences of putative target genes were amplified by PCR (Phusion PCR kit, Finnzymes) from human Melanocyte genomic DNA (Primers: ARL2 For-ctcctccaccccagcctgc (SEQ ID NO 92), ARL2 Rev-[…] (SEQ ID NO 93); FGF2 For-[…] (SEQ ID NO 94), FGF2 Rev-[…] (SEQ ID NO 95); RAB22A For-[…] (SEQ ID NO 96), RAB22A Rev-[…] (SEQ ID NO 97); SLC37A3 For-[…] (SEQ ID NO 98), SLC37A3 Rev-[…] (SEQ ID NO 99); TCF12 For-[…] (SEQ ID NO 100), TCF12 Rev-[…] ((SEQ ID NO 101); all primer sets containing 5′ NotI and 3′ AgeI sites). PCR products were cloned into pCR4-TOPO (Invitrogen), confirmed by sequencing, then subcloned into the 3′ UTR of the LacZ gene in pcDNA6/V5-His/LacZ (Invitrogen) using the 5′ NotI and 3′ AgeI restriction sites, and reconfirmed by sequencing (pcDNA6/LacZ/ARL2, pcDNA6/LacZ/FGF2, pcDNA6/LacZ/RAB22A, pcDNA6/LacZ/SLC37A3, and pcDNA6/LacZ/TCF12, respectively). FIG. 11 is an example of the pcDNA6/LacZ construct used within these experiments. As shown, the FGF2 target sequence may be cloned into the 3′ UTR of the LacZ gene. […]
# [2] = tested on: SLC37A3; assay: beta gal target cleavage assay, SLC37A3; details: A375 cells, mimic co-transfected at 100 nM
# Method: as §1
# [3] = tested on: TCF12; assay: beta gal target cleavage assay, TCF12; details: A375 cells, mimic co-transfected at 100 nM; Kruskal Wallis p-value<0.001
# Method: Target cleavage assays using the miRNA targets from the bioinformatics analyses above were conducted. The 3' UTR seed sequences of putative target genes were amplified by PCR (Phusion PCR kit, Finnzymes) from human Melanocyte genomic DNA (Primers: ARL2 For-[NT] (SEQ ID NO 92), ARL2 Rev-[NT] (SEQ ID NO 93); FGF2 For-[NT] (SEQ ID NO 94), FGF2 Rev-[NT] (SEQ ID NO 95); RAB22A For-[NT] (SEQ ID NO 96), RAB22A Rev-[NT] (SEQ ID NO 97); SLC37A3 For-[NT] (SEQ ID NO 98), SLC37A3 Rev-[NT] (SEQ ID NO 99); TCF12 For-[NT] (SEQ ID NO 100), TCF12 Rev-[NT] ((SEQ ID NO 101); all primer sets containing [NT] AgeI sites). PCR products were cloned into pCR4-TOPO (Invitrogen), confirmed by sequencing, then subcloned into the 3' UTR of the LacZ gene in pcDNA6/[…]/LacZ (Invitrogen) using the [NT] AgeI restriction sites, and reconfirmed by sequencing (pcDNA6/LacZ/ARL2, pcDNA6/LacZ/FGF2, pcDNA6/LacZ/RAB22A, pcDNA6/LacZ/SLC37A3, and pcDNA6/LacZ/TCF12, respectively). FIG. 11 is an example of the pcDNA6/LacZ construct used within these experiments. As shown, the FGF2 target sequence may be cloned into the 3' UTR of the LacZ gene. A375 Melanoma cell lines were transfected in triplicate (Fugene 6, Roche) with 5 μg plasmid DNA of: […] Negative control sequence is based on cel-miR-67, mature sequence: […] been confirmed to have minimal sequence identity with miRNAs in human, mouse and rat or E) no mimic. […]
# [4] = tested on: RAB22A; assay: beta gal target cleavage assay, RAB22A; details: A375 cells, mimic co-transfected at 100 nM
# Method: as §1
# [5] = tested on: KCNMA1; assay: beta gal target cleavage assay, KCNMA1
Substance,targeting of FGF2 (target cleavage assay) [1],"beta-galactosidase activity, SLC37A3 target construct [2]","beta-galactosidase activity, TCF-12 target construct [3]","beta-galactosidase activity, RAB22A target construct [4]",target binding in KCNMA1 (beta gal target cleavage assay) [5]
"miR-16: miRIDIAN microRNA Mimic (Dharmacon) for miR-16, UAGCAGCACGUAAAUAUUGGCG (commercial miRIDIAN mimic, chemistry not given here; listed as Homo sapiens)",confirmed,–,–,–,–
"miR-211: miRIDIAN microRNA Mimic (Dharmacon) for miR-211, UUCCCUUUGUCAUCCUUCGCCU (commercial miRIDIAN mimic, chemistry not given here; listed as Homo sapiens)",–,decreased,statistically significant reduction in fold change,decreased,confirmed
